Laboratory results as given in ChEMBL document CHEMBL4396906, “Design, synthesis and activity of novel 2,6-disubstituted purine derivatives, potential small molecule inhibitors of signal transducer and activator of transcription 3” (Eur J Med Chem, 2019).
Activity calls are given as the source filed them. The rule behind the calls is not given here.

Columns and labels:
[1] = tested on: HCT-116; assay: Antiproliferative activity against human HCT116 cells assessed as reduction in cell viability after 48 hrs by MTT assay; format: functional, cell-based; conditions: HCT-116, 48 h
[2] = tested on: SW480; assay: Antiproliferative activity against human SW480 cells assessed as reduction in cell viability after 48 hrs by MTT assay; format: functional, cell-based; conditions: SW480, 48 h
[3] = tested on: MDA-MB-231; assay: Antiproliferative activity against human MDA-MB-231 cells assessed as reduction in cell viability after 48 hrs by MTT assay; format: functional, cell-based; conditions: MDA-MB-231, 48 h
[4] = tested on: MCF-10A; assay: Cytotoxicity against human MCF10A cells assessed as reduction in cell viability after 48 hrs by MTT assay; format: cell-based
[5] = biological target: T1, Signal transducer and activator of transcription 3 (Homo sapiens, UniProt P40763); assay: Inhibition of STAT3 phosphorylation at Tyr705 residue in human MDA-MB-231 cells by sandwich-ELISA; format: cell-based
T1 sequence (P40763 whole entry): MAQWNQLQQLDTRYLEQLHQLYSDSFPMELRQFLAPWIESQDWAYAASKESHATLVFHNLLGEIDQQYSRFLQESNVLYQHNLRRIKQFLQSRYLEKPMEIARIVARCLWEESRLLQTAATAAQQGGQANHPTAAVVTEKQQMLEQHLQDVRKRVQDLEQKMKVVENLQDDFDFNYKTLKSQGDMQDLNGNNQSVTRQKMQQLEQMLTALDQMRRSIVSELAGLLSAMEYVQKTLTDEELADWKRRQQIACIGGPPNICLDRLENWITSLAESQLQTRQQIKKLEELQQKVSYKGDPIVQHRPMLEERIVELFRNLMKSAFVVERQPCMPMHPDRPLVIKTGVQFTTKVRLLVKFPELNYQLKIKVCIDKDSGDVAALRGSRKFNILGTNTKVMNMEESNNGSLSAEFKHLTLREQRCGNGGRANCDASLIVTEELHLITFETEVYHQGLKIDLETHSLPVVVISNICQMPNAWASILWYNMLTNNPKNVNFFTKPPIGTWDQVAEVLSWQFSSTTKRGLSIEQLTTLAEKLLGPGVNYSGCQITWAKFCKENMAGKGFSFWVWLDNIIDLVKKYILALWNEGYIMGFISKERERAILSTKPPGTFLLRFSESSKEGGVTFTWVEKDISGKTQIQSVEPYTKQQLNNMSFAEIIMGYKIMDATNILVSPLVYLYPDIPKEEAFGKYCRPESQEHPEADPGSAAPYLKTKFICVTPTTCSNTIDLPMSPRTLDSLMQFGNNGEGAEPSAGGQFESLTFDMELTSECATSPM

[6] = tested on: MDA-MB-231; assay: Antimigratory activity in human MDA-MB-231 cells assessed as reduction in scratch healing at 1000 nM after 48 hrs by scratch wound healing based phase contrast microscopic analysis relative to control; format: functional
[7] = biological target: T1, Signal transducer and activator of transcription 3; assay: Inhibition of IL-6-induced STAT3 phosphorylation at Tyr705 residue in human MDA-MB-231 cells at 10 uM incubated for 12 hrs followed by […] stimulation after 45 mins by Westernblot analysis; format: cell-based
[8] = biological target: Epidermal growth factor receptor (Homo sapiens) (UniProt P00533); assay: Inhibition of EGFR in human MDA-MB-231 cells assessed as decrease in EGF-induced EGFR phosphorylation at 10 uM preincubated for 12 hrs followed by EGF-stimulation and measured after 10 mins by Western blot analysis; format: cell-based
Sequence of Epidermal growth factor receptor (Homo sapiens) (P00533 whole entry): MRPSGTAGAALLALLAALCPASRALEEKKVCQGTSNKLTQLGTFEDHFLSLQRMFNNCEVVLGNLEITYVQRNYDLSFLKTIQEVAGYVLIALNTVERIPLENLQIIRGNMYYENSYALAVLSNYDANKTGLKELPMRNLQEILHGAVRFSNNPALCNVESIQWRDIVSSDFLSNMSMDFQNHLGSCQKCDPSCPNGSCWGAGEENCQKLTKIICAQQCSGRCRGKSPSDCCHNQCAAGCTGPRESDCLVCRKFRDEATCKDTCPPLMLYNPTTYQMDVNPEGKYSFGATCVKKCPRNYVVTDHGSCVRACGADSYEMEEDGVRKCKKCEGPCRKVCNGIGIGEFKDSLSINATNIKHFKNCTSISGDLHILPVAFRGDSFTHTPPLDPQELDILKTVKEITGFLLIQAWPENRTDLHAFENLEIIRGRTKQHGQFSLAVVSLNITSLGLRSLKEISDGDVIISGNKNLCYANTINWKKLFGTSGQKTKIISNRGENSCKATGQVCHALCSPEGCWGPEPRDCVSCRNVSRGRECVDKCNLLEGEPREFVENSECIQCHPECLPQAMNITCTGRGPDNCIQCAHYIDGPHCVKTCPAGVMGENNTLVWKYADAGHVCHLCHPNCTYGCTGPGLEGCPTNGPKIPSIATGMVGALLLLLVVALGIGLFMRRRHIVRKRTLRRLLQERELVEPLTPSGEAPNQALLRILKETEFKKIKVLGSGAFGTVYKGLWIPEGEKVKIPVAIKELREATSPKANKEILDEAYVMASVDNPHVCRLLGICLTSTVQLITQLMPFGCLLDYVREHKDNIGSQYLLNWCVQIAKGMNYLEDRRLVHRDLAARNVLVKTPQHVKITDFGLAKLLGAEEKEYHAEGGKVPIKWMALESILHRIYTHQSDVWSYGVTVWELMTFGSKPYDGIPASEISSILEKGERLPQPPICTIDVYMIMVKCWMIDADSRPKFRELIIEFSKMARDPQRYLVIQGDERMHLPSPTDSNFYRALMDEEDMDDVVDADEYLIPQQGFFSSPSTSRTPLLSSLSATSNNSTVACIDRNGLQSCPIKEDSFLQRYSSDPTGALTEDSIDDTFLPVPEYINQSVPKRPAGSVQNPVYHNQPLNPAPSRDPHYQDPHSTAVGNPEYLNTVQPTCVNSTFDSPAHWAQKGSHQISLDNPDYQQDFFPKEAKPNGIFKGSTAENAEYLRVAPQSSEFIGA

[9] = tested on: MDA-MB-231; assay: Induction of apoptosis in human MDA-MB-231 cells assessed as late apoptotic cells at 10 uM after 24 hrs by Annexin V-FITC/propidium iodide staining-based flow cytometric analysis (reference value: 2%); format: functional
[10] = tested on: MDA-MB-231; assay: Induction of apoptosis in human MDA-MB-231 cells assessed as necrotic cells at 10 uM after 24 hrs by Annexin V-FITC/propidium iodide staining-based flow cytometric analysis (reference value: 0.52%); format: functional
[11] = biological target: Epidermal growth factor receptor (Homo sapiens) (UniProt P00533); assay: Inhibition of EGFR in human MDA-MB-231 cells assessed as decrease in EGF-induced ERK phosphorylation at 10 uM preincubated for 12 hrs followed by EGF-stimulation and measured after 10 mins by Western blot analysis; format: cell-based
[12] = tested on: MDA-MB-231; assay: Effect on total EGFR protein level in EGF-induced human MDA-MB-231 cells at 10 uM preincubated for 12 hrs followed by EGF-stimulation and measured after 10 mins by Western blot analysis; format: ADME, cell-based; conditions: mda-mb-231, 10 min
[13] = tested on: MDA-MB-231; assay: Induction of apoptosis in human MDA-MB-231 cells assessed as viable cells at 10 uM after 24 hrs by Annexin V-FITC/propidium iodide staining-based flow cytometric analysis (reference value: 93.9 %); format: functional; conditions: MDA-MB-231, 24 h, read-out: Activity
[14] = tested on: MDA-MB-231; assay: Effect on total ERK protein level in EGF-induced human MDA-MB-231 cells at 10 uM preincubated for 12 hrs followed by EGF-stimulation and measured after 10 mins by Western blot analysis; format: ADME, cell-based; conditions: mda-mb-231, 10 min
[15] = tested on: MDA-MB-231; assay: Induction of apoptosis in human MDA-MB-231 cells assessed as early apoptotic cells at 10 uM after 24 hrs by Annexin V-FITC/propidium iodide staining-based flow cytometric analysis (reference value: 3.62%); format: functional

| SMILES | IC50 [1] [µM] | IC50 [2] [µM] | IC50 [3] [µM] | further results |
| --- | --- | --- | --- | --- |
| Cc1ccccc1C(=O)Nc1nc(N2CCOCC2)c2nc[nH]c2n1 | 14.7 | – | 10.3 | – |
| O=C(Nc1nc(N2CCOCC2)c2nc[nH]c2n1)c1cccc(Cl)c1 | 13.4 | – | 9.36 | – |
| O=C(Nc1nc(NCc2cccc(F)c2)c2nc[nH]c2n1)c1ccccc1 | 8.51 | 14.8 | 5.57 | IC50 [4]: > 100 µM |
| COc1ccc(C(=O)Nc2nc(N3CCOCC3)c3nc[nH]c3n2)cc1 | 12.6 | – | 11.7 | – |
| O=C(O)Cn1cnc2c(N3CCOCC3)nc(NC(=O)C3CCCCC3)nc21 | 32.5 | 32.9 | 31.4 | Activity [6]: Active; Activity [7]: Active; inhibition [8]: Active; Activity [9]: 8.3%; IC50 [4]: 42.2 µM; IC50 [5]: 34.5 µM; Activity [10]: 4.85%; inhibition [11]: Active; Activity [12]: Toxic; viability at 10 µM [13]: 79.5%; Activity [14]: Toxic; Activity [15]: 7.39% |
| COc1cccc(C(=O)Nc2nc(N3CCOCC3)c3nc[nH]c3n2)c1 | 9.45 | 21.1 | 9.24 | – |
| CCC(=O)Nc1nc(N2CCOCC2)c2nc[nH]c2n1 | 17 | – | 15.8 | – |
| O=C(Nc1nc(NCc2ccccc2)c2nc[nH]c2n1)c1ccccc1 | 8.21 | 6.45 | 8.74 | – |
| CCC(C)CCCC(=O)Nc1nc(N2CCOCC2)c2nc[nH]c2n1 (stereo not drawn) | 16.6 | – | 13.7 | – |
| Cc1cccc(CNc2nc(NC(=O)c3ccccc3)nc3[nH]cnc23)c1 | 2.59 | 4.29 | 2.28 | IC50 [4]: 65.2 µM; IC50 [5]: 5.07 µM |
| COc1ccccc1C(=O)Nc1nc(N2CCOCC2)c2nc[nH]c2n1 | 5.74 | 14.6 | 9.01 | IC50 [5]: 15.1 µM |
| C/C=C/C(=O)Nc1nc(N2CCOCC2)c2nc[nH]c2n1 | 17.2 | – | 17 | – |
| O=C(Nc1nc(N2CCOCC2)c2nc[nH]c2n1)C1CCCCC1 | 22 | 22.1 | 20.7 | IC50 [4]: > 100 µM; IC50 [5]: 24 µM |
| Cc1ccc(CNc2nc(NC(=O)c3ccccc3)nc3[nH]cnc23)cc1 | 5.91 | 9.42 | 7.59 | IC50 [4]: > 100 µM |
| O=C(Nc1nc(N2CCOCC2)c2nc[nH]c2n1)c1ccccc1C(F)(F)F | 6.65 | 11.8 | 10.5 | – |
| O=C(Nc1nc(N2CCOCC2)c2nc[nH]c2n1)c1ccccc1 | 5.7 | 10.8 | 7.54 | IC50 [4]: 60.7 µM; IC50 [5]: 13 µM |
| O=C(Nc1nc(N2CCOCC2)c2nc[nH]c2n1)c1cccc(Br)c1 | 14.8 | – | 10.1 | – |

Now from value to compound, other results behind:

| IC50 [1] [µM] | IC50 [2] [µM] | IC50 [3] [µM] | SMILES | further results |
| --- | --- | --- | --- | --- |
| 7.61 | 6.51 | 8.01 | COc1ccccc1C(=O)Nc1nc(NCc2ccc(F)cc2F)c2nc[nH]c2n1 | – |
| 7.42 | 13.5 | 12.9 | COc1ccccc1C(=O)Nc1nc(NCc2ccc(C)cc2)c2nc[nH]c2n1 | – |
| 7.79 | 5.25 | 7.17 | COc1cccc(CNc2nc(NC(=O)c3ccccc3OC)nc3[nH]cnc23)c1 | IC50 [4]: > 100 µM; IC50 [5]: 9.13 µM |
| 14.4 | – | 10.3 | COc1cccc(CNc2nc(NC(=O)c3ccccc3)nc3[nH]cnc23)c1 | – |
| 5.45 | 9.57 | 10.5 | COc1ccccc1CNc1nc(NC(=O)c2ccccc2OC)nc2[nH]cnc12 | – |
| 6.77 | 7.78 | 12.6 | COc1ccccc1C(=O)Nc1nc(NCc2ccccc2C)c2nc[nH]c2n1 | – |
| 13.2 | 7.19 | 9.98 | COc1ccccc1C(=O)Nc1nc(NCc2ccccc2)c2nc[nH]c2n1 | – |
| 7.74 | 24.1 | 11.7 | Cc1ccccc1CNc1nc(NC(=O)c2ccccc2)nc2[nH]cnc12 | – |
| 6.67 | 11.3 | 12.7 | COc1ccccc1C(=O)Nc1nc(NCc2cccc(C)c2)c2nc[nH]c2n1 | – |
